Patent publication US10910084B2, “Method for modelling, optimizing, parameterizing, testing and validating a dynamic network with network perturbations” (Albert-Ludwigs-Universität Freiburg, priority 2011, dated 2021)

Tests used:
Format in all cases: cell-based
[1] = system: mTOR-pS2481 (mTORC2 readout) in HeLa cells; assay: mTOR-pS2481 immunoblot of whole cell lysates, HeLa cells starved and induced with aa/insulin
Protocol: (§1) Experiments were performed in particular in HeLa α Kyoto cells and C2C12 myoblasts. For inducible knock down of Raptor or TSC2, cells were transduced with lentivirus encoding the tetracycline-sensitive tTR-KRAB repressor and a DsRed reporter. Cells were subsequently transfected with lentivirus encoding the specific shRNA, and a GFP reporter, (pLVTH vector), both preferably under the control of tTR-KRAB. For lentivirus-mediated knock down of Rictor a pLKO.1-based short hairpin construct specific for Rictor (Addgene plasmid 1853), as well as a scrambled control sequence (Addgene plasmid 1864) can in particular be supplied from Addgene. HeLa cells were transfected with viral supernatant twice as described previously and harvested 60 hours after transfection.
For calibration data sets, in particular HeLa cells can be starved for serum and amino acids by exchanging standard growth medium for Hank's Buffered Salt Solution (HBSS) (PAN Biotech GmbH, Aidenbach, Germany) over night to inhibit mTOR pathway activity. After 16 hours of starvation, mTOR signaling was restimulated with DMEM containing amino acids and supplemented with 100 nM insulin (Sigma Aldrich, St. Louis, Mo., USA).
Gradual knockdowns of Raptor or TSC2 can preferably be established by induction with 5 μg/ml doxycycline (Calbiochem, Merck, Darmstadt, Germany) for 0, 1, 2, or 3 days. Cells can be starved for 16 hours in HBSS and mTOR signaling was induced with DMEM (PAA, Pasching, Austria) supplemented with 100 nM insulin. […] Wortmannin or LY294002 can in particular be added 30 min prior to and during the stimulation with DMEM supplemented 100 nM insulin. Cells can for example be washed once with PBS and lysed with TNE lysis buffer [50 mM Tris HCL pH8.0, 150 mM NaCl, 1% v/v TritonX-100 (Calbiochem, Merck, Darmstadt, Germany), Complete (Roche, Mannheim, Germany), Phosphatase Inhibitor Cocktail 2, Phosphatase Inhibitor Cocktail 3 (both Sigma Aldrich, St. Louis, Mo., USA)]. Protein concentrations can preferably be measured (Protein Assay Dye Reagent Concentrate, Bio-Rad, Hercules, Calif., USA) according to manufacturer's protocol. Concentrations can for example be adjusted with lysis buffer. […] Whole cell lysates can for example be analyzed using SDS-PAGE gels. […]
HRP can for example be detected with the ECL Western Blotting Substrate or the SuperSignal West Femto reagent [Pierce Biotechnology (Thermo Scientific, Rockford, Ill. USA)], and the emitted light can in particular be detected and quantified with a chemiluminescence imaging analyzer (LAS4000mini; Fujifilm, Tokyo, Japan). Obtained images can preferably be analyzed with Multi-Gauge version 3.0 software (Fujifilm, Tokyo, Japan). […]

[2] = system: p70-S6K-pT389 (mTORC1 readout) in HeLa cells; assay: p70-S6K-pT389 immunoblot of whole cell lysates, HeLa cells; conditions: quantitation of 3 experiments; 200 nM PP242; Rapamycin; * P<0.05
Protocol: as §1, with “HeLa cells were transfected with viral supernatant twice as described previously and harvested 60 hours after transfection.” left out
(§2) Gradual knockdowns of Raptor or TSC2 can preferably be established by induction with 5 μg/ml doxycycline (Calbiochem, Merck, Darmstadt, Germany) for 0, 1, 2, or 3 days. […] Protein concentrations can preferably be measured (Protein Assay Dye Reagent Concentrate, Bio-Rad, Hercules, Calif., USA) according to manufacturer's protocol. […] Whole cell lysates can for example be analyzed using SDS-PAGE gels. […]
(§3) HRP can for example be detected with the ECL Western Blotting Substrate or the SuperSignal West Femto reagent [Pierce Biotechnology (Thermo Scientific, Rockford, Ill. USA)], and the emitted light can in particular be detected and quantified with a chemiluminescence imaging analyzer (LAS4000mini; Fujifilm, Tokyo, Japan). […]

[3] = system: mTOR-pS2481 in C2C12 cells; assay: mTOR-pS2481 immunoblot in C2C12 myoblasts; conditions: continuous presence of aa/insulin
Protocol: as §1, with “HeLa cells were transfected with viral supernatant twice as described previously and harvested 60 hours after transfection.” left out
as §2, §3

[4] = system: mTOR-pS2481 associated with the immunoprecipitated mTORC2; assay: mTOR-pS2481 in mTORC2 immunoprecipitated with Sin1 antibody, HeLa cells; conditions: Sin1 immunoprecipitation
Protocol: Immunoprecipitations can in particular be performed as described elsewhere. […] Immunoprecipitations were performed with 5 μg/ml antibody [antibody recognizing Sin1, Raptor, or rabbit IgG (all Bethyl)] and with magnetic Dynabeads Protein G (Invitrogen). Gradual knockdowns of Raptor or TSC2 can preferably be established by induction with 5 μg/ml doxycycline (Calbiochem, Merck, Darmstadt, Germany) for 0, 1, 2, or 3 days. Cells can be starved for 16 hours in HBSS and mTOR signaling was induced with DMEM (PAA, Pasching, Austria) supplemented with 100 nM insulin. […] Wortmannin or LY294002 can in particular be added 30 min prior to and during the stimulation with DMEM supplemented 100 nM insulin. […] Protein concentrations can preferably be measured (Protein Assay Dye Reagent Concentrate, Bio-Rad, Hercules, Calif., USA) according to manufacturer's protocol. […] Whole cell lysates can for example be analyzed using SDS-PAGE gels. […] HRP can for example be detected with the ECL Western Blotting Substrate or the SuperSignal West Femto reagent [Pierce Biotechnology (Thermo Scientific, Rockford, Ill. USA)], and the emitted light can in particular be detected and quantified with a chemiluminescence imaging analyzer (LAS4000mini; Fujifilm, Tokyo, Japan). Obtained images can preferably be analyzed with Multi-Gauge version 3.0 software (Fujifilm, Tokyo, Japan). […]

Akt-pS473 in HeLa cells = assay: Akt-pS473 immunoblot of whole cell lysates, HeLa cells; conditions: HeLa cells starved, induced by aa/insulin for 30 and 50 min
Protocol: as §1, with “HeLa cells were transfected with viral supernatant twice as described previously and harvested 60 hours after transfection.” left out
as §2, §3

O=c1cc(N2CCOCC2)oc2c(-c3ccccc3)cccc12 [LY294002]
LY294002 concentrations at which mTORpS2481 was reduced ([1]; HeLa cells (FIG. 10C)): ≥ 1 µM

CC(C)n1nc(-c2cc3cc(O)ccc3[nH]2)c2c(N)ncnc21 [PP242]
mTOR-pS2481 abundance ([1]; HeLa cells, short-term treatment): reduced the abundance of mTORpS2481 in a dose-dependent manner | mTOR-pS2481 compared to DMSO-treated control, significance (FIG. 1E) ([1]; quantitation of 3 experiments, 200 nM PP242, 100 nM Rapamycin, * P<0.05): significant | p70-S6K-pT389 compared to DMSO-treated control, significance (FIG. 1D) [2]: significant | amount of mTOR-pS2481 [3]: decreased | mTOR-pS2481 associated with the immunoprecipitated mTORC2 [4]: significantly reduced

COC[C@H]1OC(=O)c2coc3c2[C@@]1(C)C1=C(C3=O)[C@@H]2CCC(=O)[C@@]2(C)C[C@H]1OC(C)=O [Wortmannin]
Wortmannin concentration at which Akt-pS473 was already inhibited (Akt-pS473 in HeLa cells): 5 nM | Wortmannin concentrations at which Akt-pS473 was strongly inhibited (Akt-pS473 in HeLa cells): ≥ 10 nM | Wortmannin concentrations at which mTORpS2481 was inhibited ([1]; HeLa cells starved, induced by aa/insulin for 30 and 50 min): ≥ 20 nM
